Assay results taken from patent US20120088667A1, “SAFENING AGENT” (priority 2009, published 2012).
Read-outs that look alike come from different tables or passages of the source.

What was measured:
Winter wheat cv Alchemy = test: Safening of herbicides (Chlorotoluron, Isoproturon, Flumioxazin), winter wheat
Source text: Safening systems were applied to crops of oilseed rape and winter treated with various herbicides (Bifenox (with insecticide), Carbetamide, Propaquizafop, Chlorotoluron, Isoproturon, Flumioxazin). The safening system and the herbicide were applied to the crops either simultaneously or sequentially.
Oilseed rape: cv Excalibur, sown 26 Apr. 2008, at two seeds per 9 cm pot, sown in normal pH multi-purpose compost. Date of spraying: 6 June; Dates of measurement/scoring: 13 June, 20 June, 5 July. Winter wheat: cv Alchemy, sown 23 Apr. 2008, at seven seeds per 9 cm pot, sown in normal pH multi-purpose compost. Date of spraying: 24 May; Dates of measurement/scoring: 31 May, 7 June, 21 June. SAF: at least one from class (f) each at <3 g/l, plus at least one from class (c).
Statistical Layout: Randomised Complete Block trials, under glasshouse conditions, United Kingdom.

Glycine max (Soybean) = test: Root nodulation and safening, soybean, compost of normal pH (Example 7.2); conditions: compost of normal pH (6.5)
Source text: (§1) The safener/safening system and the fertiliser were applied to the crops either simultaneously or sequentially.
(§2) Co=100% Cobalt Sulphate (20 g per litre and per hectare). FF1=20 g per litre Cobalt Sulphate (as per Co above) plus “Miracle-Gro” at xl recommended rate (applied at 15 g per 2.5 sq metres). Miracle-Gro contains: 24% N, 4% P, 13% K, plus 0.02% B, 0.03% Cu, 0.19% Fe, 0.05% Mn, 0.001% Mo and 0.03% Zn. FF2=20 g per litre Cobalt Sulphate plus Miracle-Gro at ×2 recommended rate. SAF: at least one from class (f) each at <3 g/l, plus at least one from class (c).
Dates as per Example 7.1 above, but sown in compost of normal pH (6.5). Each treatment represents the mean values for 12 plants, within four replicates. Sowing density 110 kg/ha. Standard inoculant applied at sowing.

NAVY BEAN cv Mogex = test: Root nodulation and safening, navy bean, compost of normal pH (Example 7.4); conditions: compost of normal pH (6.5)
Source text: as §1, §2
NAVY BEAN cv Mogex. Scored/Counted+28 Days after Spraying. Dates as per Example 7.3 Above, but sown in compost of normal pH (6.5). Each treatment represents the mean value from 12 plants, within four replicates. No inoculum applied.

[1] = tested on: Maize cv Sundance (i.e. not Roundup Ready); conditions: no glyphosate
Soybean = test: Root nodulation and safening, soybean, compost of low pH (Example 7.1); conditions: Soybean, compost of low pH (5.0-5.5)
Source text: as §1, §2
Scored/Counted+28 Days After Spraying. Sown in Compost of low pH (5.0-5.5) on 1 May 2008. Spray Date (VC)=4 June, V1 Date=20 June. Scored/Measured on 17 July. […] Seed density approx 110 kg/ha. Soybean treated with standard inoculant at sowing.

Winter Wheat cv Limerick = conditions: +14 days
Source text: (§3) The safening system and the fungicide were applied to the crops either simultaneously or sequentially, either as foliar applications or as a seed treatment.
(§4) Winter Barley: cv Saffron, sown 27 May 2008, at four/five seeds per 9 cm pot, sown in standard multi-purpose compost of pH 6.5. Date of spraying: 23 July; Dates of measurement/scoring: 30 July, 14 August, 22 August. Sprayed: mid-tillering phase (GS23). Winter Wheat: cv Limerick, sown 4 Jun. 2008, at four/five seeds per 9 cm pot, sown in standard multi-purpose compost of pH 6.5. Date of spraying: 23 July; Dates of measurement/scoring: 30 July, 14 August, 23 August. Sprayed: mid-tillering phase (GS23). Maize: cv Sundance, sown 25 May 2008, at 10 seeds per 25 cm pot, in John Innes No 1 compost. Date of measurement/assessment: 15 June. Seed treatment trial. Randomised block, mean of five replicates.
(§5) SAF: at least one from class (f) each at <3 g/l, plus at least one from class (c).

Winter Barley cv Saffron = conditions: for Vigour (0-9) (9 = Most Vigour) + 14 days: score 0-9, 9 = Most Vigour; for Vigour (0-9) + 28 Days: score 0-9, +28 days
Source text: as §3, §4, §5

[2] = Table 2.1, fungicide Prochloraz
[3] = Table 2.2, fungicide Flutriafol
[4] = Table 2.3, fungicides Fenpropidin and Flutriafol

For `CC(=O)Nc1ccc(O)cc1` [AC, N-(4-hydroxypheyl)acetamide, reference compound], the “Greenness (0-9) (9 = Deeper Green) + 14 Days” value (Winter wheat cv Alchemy; Table 3.3, no herbicide) was 8.0, the “Greenness (0-9) + 28 Days” value (Winter wheat cv Alchemy; Table 3.3, no herbicide) was 8.0 and the “Phytotoxicity (0-9) + 28 Days” value (Winter wheat cv Alchemy; Table 3.3, no herbicide) was 8.0. For the same compound, the “Greenness (0-9) (9 = Deeper Green) + 14 Days” value (Winter wheat cv Alchemy; Table 3.4, no herbicide) was 8.0, the “Greenness (0-9) + 28 Days” value (Winter wheat cv Alchemy; Table 3.4, no herbicide) was 8.0 and the “Phytotoxicity (0-9) + 28 Days” value (Winter wheat cv Alchemy; Table 3.4, no herbicide) was 8.0. For the same compound, the “Greenness (0-9) (9 = Deeper Green) + 14 Days” value (Winter wheat cv Alchemy; Table 3.5, no herbicide) was 8.0, the “Greenness (0-9) + 28 Days” value (Winter wheat cv Alchemy; Table 3.5, no herbicide) was 8.0 and the “Phytotoxicity (0-9) + 28 Days” value (Winter wheat cv Alchemy; Table 3.5, no herbicide) was 8.0. The “Nodules Per Plant (V1)” value (Glycine max (Soybean); V1, mean of 12 plants) was 29.9, the “Nodulation Score (0-9) (V1)” value (Glycine max (Soybean); V1, score 0-9) was 5.5 and the “Phyto-Toxicity Score (0-9) (V1)” value (Glycine max (Soybean); V1, score 0-9) was 8.0. The “Vigour Score (0-9) (V1)” value (Glycine max (Soybean); V1, score 0-9) was 6.5, the “Nodules Per Plant (VC)” value (Glycine max (Soybean); VC) was 32.0 and the “Nod Score (0-9) (VC)” value (Glycine max (Soybean); VC, score 0-9) was 5.7. For the same compound, the “Nodules Per Plant (V1)” value (NAVY BEAN cv Mogex; V1, +28 days after spraying, no inoculum) was 29.5, the “Nodulation Score (0-9) (V1)” value (NAVY BEAN cv Mogex; V1, score 0-9) was 4.8 and the “Phyto-Toxicity Score (0-9) (V1)” value (NAVY BEAN cv Mogex; V1, score 0-9) was 7.0. The “Vigour Score (0-9) (V1)” value (NAVY BEAN cv Mogex; V1, score 0-9) was 7.0, the “Nodules Per Plant (VC)” value (NAVY BEAN cv Mogex; VC) was 32.1 and the “Nod Score (0-9) (VC)” value (NAVY BEAN cv Mogex; VC, score 0-9) was 5.0. The “Phytotoxicity (0-9) (0 = Dead) + 41 days” value ([1]; scale 0-9, 0=dead, 9=least phytotoxicity, 41 days) was 8.0, the “Vigour (0-9) + 14 Days” value ([1]; scale 0-9, 0=least vigour, 9=most vigour, 14 days) was 8.0 and the “Vigour (0-9) + 28 Days” value ([1]; scale 0-9, 0=least vigour, 9=most vigour, 28 days) was 8.0. The “Vigour (0-9) + 41 Days” value ([1]; scale 0-9, 0=least vigour, 9=most vigour, 41 days) was 8.0, the “Nodules Per Plant (V1)” value (Soybean; V1, +28 days after spraying, mean of 12 plants) was 26.1 and the “Nodulation Score (0-9) (V1)” value (Soybean; V1, score 0-9) was 5.0. For the same compound, the “Phyto-Toxicity Score (0-9) (V1)” value (Soybean; V1, score 0-9) was 8.0, the “Vigour Score (0-9) (V1)” value (Soybean; V1, score 0-9) was 6.0 and the “Nodules Per Plant (VC)” value (Soybean; VC, +28 days after spraying) was 28.1. The “Nod Score (0-9) (VC)” value (Soybean; VC, score 0-9) was 5.3, the “Vigour (0-9) (9 = Most Vigour) + 14 days” value (Winter Wheat cv Limerick; Table 2.4, winter wheat, fungicide Prochloraz, score 0-9, 9 = Most Vigour) was 7.0 and the “Vigour (0-9) (9 = Most Vigour) + 14 days” value (Winter Wheat cv Limerick; Table 2.5, winter wheat, fungicide Flutriafol, score 0-9, 9 = Most Vigour) was 7.0. The “Vigour (0-9) (9 = Most Vigour) + 14 days” value (Winter Wheat cv Limerick; score 0-9, 9 = most vigour, foliar, fungicides Fenpropidin and Flutriafol, Table 2.6) was 7.0, the “Vigour (0-9) (9 = Most Vigour) + 14 days” value (Winter Barley cv Saffron; [2]) was 7.0 and the “Vigour (0-9) + 28 Days” value (Winter Barley cv Saffron; [2]) was 8.0. The “Vigour (0-9) (9 = Most Vigour) + 14 days” value (Winter Barley cv Saffron; [3]) was 7.0, the “Vigour (0-9) + 28 Days” value (Winter Barley cv Saffron; [3]) was 8.0 and the “Vigour (0-9) (9 = Most Vigour) + 14 days” value (Winter Barley cv Saffron; [4]) was 7.0. For the same compound, the “Vigour (0-9) + 28 Days” value (Winter Barley cv Saffron; [4]) was 8.0.
